Each compound was assayed against T1, human Npt2a (Homo sapiens, UniProt Q06495) (assay: Npt2a activity cell based assay, membrane potential dye, CHO T-REx hNpt2a cells). Conditions: doxycycline-induced, depolarization by sodium phosphate influx, average or median values if tested more than once.
T1 construct: expressed in transfected cells
T1 sequence (Q06495 1-639): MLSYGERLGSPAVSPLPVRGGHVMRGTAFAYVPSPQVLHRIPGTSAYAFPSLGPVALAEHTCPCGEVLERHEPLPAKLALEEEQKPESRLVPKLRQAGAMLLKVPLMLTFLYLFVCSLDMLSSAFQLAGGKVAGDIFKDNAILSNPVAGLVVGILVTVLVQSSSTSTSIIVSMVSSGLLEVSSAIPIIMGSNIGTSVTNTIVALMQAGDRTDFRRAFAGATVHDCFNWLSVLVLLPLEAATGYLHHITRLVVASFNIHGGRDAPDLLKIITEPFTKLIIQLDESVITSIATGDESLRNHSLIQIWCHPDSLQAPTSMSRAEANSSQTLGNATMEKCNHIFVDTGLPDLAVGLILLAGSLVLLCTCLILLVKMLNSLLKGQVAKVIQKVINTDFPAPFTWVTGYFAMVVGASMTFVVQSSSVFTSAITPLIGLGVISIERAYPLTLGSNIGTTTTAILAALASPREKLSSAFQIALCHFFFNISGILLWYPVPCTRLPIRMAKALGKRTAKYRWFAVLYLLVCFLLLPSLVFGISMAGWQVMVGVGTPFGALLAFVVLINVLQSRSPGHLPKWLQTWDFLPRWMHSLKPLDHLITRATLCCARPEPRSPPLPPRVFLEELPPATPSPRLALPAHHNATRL
Method: For measuring Npt2a activity in a cell based assay, a stable CHO cell line with inducible Npt2a expression was generated. Therefore, CHO T-Rex cells (life technologies cat. R718-07) were stably transfected with doxycycline-inducible human NPT2a (pcDNA5TO-hNpt2a). The obtained CHO T-REx hNpt2a cells were routinely cultured in Dulbecco's MEM/F12 (4.5 g/l Glucose, Gibco cat. 21331-020; 500 mL) supplemented with 10 ml Glutamax 100×, Sodium pyruvate (7 mL of 100 mM solution), HEPES (10 mL of 1 M solution), Sodium bicarbonate (10 mL of 7.5% solution), 10% Fetal Bovine Serum Tetracycline free (Clontech cat. 631106, 500 ml), Penicillin-Streptomycin (5 mL of 100× Solution), Blasticidin 10 μg/mL and 400 μg/mL Hygromycin.
Activity of Npt2a was detected by following depolarization of cellular membrane potential by influx of sodium phosphate using fluorescent membrane potential dye kit BLUE (Molecular devices cat. R8034). For Npt2a activity measurements, CHO T-Rex hNpt2a cells were seeded into 1536 well microtiter plates (GREINER Bio-One cat. 782092) with 750 cells/well in 7 μL/w of complete medium (2% Tetracycline-free FBS, 2% Poly-D-Lysine) without selective agents+Doxycycline 0.5 μg/mL to induce Npt2a gene expression, and grown for 24 h at 37° C., 5% carbon dioxide.
On the day of experiment a 1×MPdye Loading Solution was freshly prepared by re-suspending 15 mg of Blue MPdye powder in 10 mL of NHE buffer sodium-free (140 mM N-Methyl-D-glucamine, 5.4 mM KCl, 1 mM CaCl2, 11 mM D(±)-Glucose water free, 1.2 mM MgCl2, 10 mM HEPES; pH 7.4 (adjusted with hydrochloric acid); sterile filtered). 5 μl medium was removed from plates by robotic manipulation, then 5 μL/well of sodium-free NHE buffer was added. After incubation for 2 min, this washing step was repeated once. Then, 5 μL/w of buffer was removed from plates and cells were incubated for 5 min at room temperature with 5 μL/w of MPdye Loading Solution (1× in Sodium-free NHE Buffer). Test compounds were added to the cells at final test concentrations between 50 μM and 1 nM (0.6 μL/well, final DMSO 0.6%, prepared in MPDye Loading Solution) and incubated for 5 min at room temperature.
Plates were analyzed with an in house CCD camera device using a λexc 510-545 nm/λem 565-625 nm filter. Fluorescence was detected for 15 sec (background measurement M1). Activity of Npt2a was triggered by addition of 2 μL/well of 30 mM Na+ and 1 mM phosphate (prepared in a mixture of NHE Buffer Na+ free and NHE Buffer 140 mM Na+). Fluorescence was followed for 2-3 min (depolarization measurement M2). Data was normalized to cell number and dye loading efficiency by calculating M2/M1. This quotient was plotted against test compound concentration. Graph Pad Prism or equivalent in house software was used to create sigmoidal dose-response curves (variable slope) and determine IC50 values.
Work on `Cc1nn(-c2cc(Nc3[nH]nc(-c4ccc(C#N)cc4)c3C)ncn2)c(C)c1F` [Example 266, 4-(5-{[6-(4-fluoro-3,5-dimethyl-1H-pyrazol-1-yl)pyrimidin-4-yl]amino}-4-methyl-1H-pyrazol-3-yl)benzonitrile] yielded an IC50 of 410 nM.
Work on `Cc1nn(-c2cc(Nc3c(C4CC4)c(-c4ccc(F)cc4)nn3C)ncn2)c(C)c1Cl` [Example 45, 6-(4-chloro-3,5-dimethyl-1H-pyrazol-1-yl)-N-[4-cyclopropyl-3-(4-fluorophenyl)-1-methyl-1H-pyrazol-5-yl]pyrimidin-4-amine] yielded an IC50 of 29 nM.
`CCc1c(Nc2cc(-n3nc(C)c(C(=O)N4CC(C)OC(C)C4)c3C)ncn2)nn(C)c1-c1ccc(F)cc1` (racemic) [Example 74, (±)-[syn-2,6-dimethylmorpholin-4-yl][1-(6-{[4-ethyl-5-(4-fluorophenyl)-1-methyl-1H-pyrazol-3-yl]amino}pyrimidin-4-yl)-3,5-dimethyl-1H-pyrazol-4-yl]methanone] gave an IC50 of 1260 nM.
In the case of `CCOC(=O)c1c(C)nn(-c2cc(Nc3c(CC)c(-c4ccc(C#N)cc4)nn3CC3CC3)ncn2)c1C` [Example 156, ethyl 1-(6-{[3-(4-cyanophenyl)-1-(cyclopropylmethyl)-4-ethyl-1H-pyrazol-5-yl]amino}pyrimidin-4-yl)-3,5-dimethyl-1H-pyrazole-4-carboxylate], the IC50 is reported as 2 nM.
For `COCCn1nc(-c2ccc(F)cc2)c(C)c1Nc1cc(-n2nc(C)cc2C)ncn1` [Example 525, 6-(3,5-dimethyl-1H-pyrazol-1-yl)-N-[3-(4-fluorophenyl)-1-(2-methoxyethyl)-4-methyl-1H-pyrazol-5-yl]pyrimidin-4-amine], the IC50 was 4 nM.
Compound `Cc1cc(C(F)F)n(-c2cc(Nc3nn(C)c(-c4ccc(F)cc4)c3C)ncn2)n1` [Example 69, 6-[5-(difluoromethyl)-3-methyl-1H-pyrazol-1-yl]-N-[5-(4-fluorophenyl)-1,4-dimethyl-1H-pyrazol-3-yl]pyrimidin-4-amine] has an IC50 of 8.4 nM.
`Cc1nn(-c2cc(Nc3c(C)c(-c4ccc(C#N)cc4)nn3CC3CC3)ncn2)c(C(F)F)c1Cl` [Example 154, 4-[5-({6-[4-chloro-5-(difluoromethyl)-3-methyl-1H-pyrazol-1-yl]pyrimidin-4-yl}amino)-1-(cyclopropylmethyl)-4-methyl-1H-pyrazol-3-yl]benzonitrile] was tested, and the IC50 was 3 nM.
With `CCc1c(Nc2cc(-n3nc(CO)cc3C)ncn2)nn(C)c1-c1ccc(F)cc1` [Example 94, [1-(6-{[4-ethyl-5-(4-fluorophenyl)-1-methyl-1H-pyrazol-3-yl]amino}pyrimidin-4-yl)-5-methyl-1H-pyrazol-3-yl]methanol] the IC50 was 2500 nM.
`CCOC(=O)c1c(C)nn(-c2cc(Nc3n[nH]c(-c4ccccc4)c3C)ncn2)c1C` [Example 16, ethyl 3,5-dimethyl-1-{6-[(4-methyl-5-phenyl-1H-pyrazol-3-yl)amino]pyrimidin-4-yl}-1H-pyrazole-4-carboxylate] gave an IC50 of 81 nM.
With `CCc1c(-c2ccc(F)cc2)nn(C)c1Nc1cc(-n2nc(C)c(Cl)c2C)ncn1` [Example 97, 6-(4-chloro-3,5-dimethyl-1H-pyrazol-1-yl)-N-[4-ethyl-3-(4-fluorophenyl)-1-methyl-1H-pyrazol-5-yl]pyrimidin-4-amine] the IC50 was 75 nM.
For `Cc1c(-c2ccc(C#N)cc2)nn(CC2CC2)c1Nc1cc(-n2nc(C)c3cnccc32)ncn1` [Example 233, 4-[1-(cyclopropylmethyl)-4-methyl-5-{[6-(3-methyl-1H-pyrazolo[4,3-c]pyridin-1-yl)pyrimidin-4-yl]amino}-1H-pyrazol-3-yl]benzonitrile], the IC50 was 29 nM.
Work on `Cc1cc(C(F)F)n(-c2cc(Nc3c(C)c(-c4ccc(C#N)cc4)nn3C)ncn2)n1` [Example 240, 4-[5-({6-[5-(difluoromethyl)-3-methyl-1H-pyrazol-1-yl]pyrimidin-4-yl}amino)-1,4-dimethyl-1H-pyrazol-3-yl]benzonitrile] yielded an IC50 of 18 nM.
`Cc1nn(-c2cc(Nc3c(C)c(-c4ccc(C#N)cc4)nn3CCC3CC3)ncn2)c(C)c1Cl` [Example 221, 4-[5-{[6-(4-chloro-3,5-dimethyl-1H-pyrazol-1-yl)pyrimidin-4-yl]amino}-1-(2-cyclopropylethyl)-4-methyl-1H-pyrazol-3-yl]benzonitrile] showed an IC50 of 6 nM.
`Cc1nn(-c2cc(Nc3c(C)c(-c4ccc(OC(F)(F)F)cc4)nn3CC3CC3)ncn2)c(C(C)(C)O)c1Cl` [Example 290, 2-{4-chloro-1-[6-({1-(cyclopropylmethyl)-4-methyl-3-[4-(trifluoromethoxy)phenyl]-1H-pyrazol-5-yl}amino)pyrimidin-4-yl]-3-methyl-1H-pyrazol-5-yl}propan-2-ol] gave an IC50 of 170 nM.
`CCc1c(Nc2cc(-n3nc(C)c(C(=O)N4CCC(C(F)(F)F)C4)c3C)ncn2)nn(C)c1-c1ccc(F)cc1` (stereo not shown) [Example 272, [1-(6-{[4-ethyl-5-(4-fluorophenyl)-1-methyl-1H-pyrazol-3-yl]amino}pyrimidin-4-yl)-3,5-dimethyl-1H-pyrazol-4-yl][3-(trifluoromethyl)pyrrolidin-1-yl]methanone] showed an IC50 of 340 nM.
`CCc1c(-c2ccc(F)cc2)nn(C)c1Nc1cc(-n2nc(C)c3ncccc32)ncn1` [Example 229, N-[4-ethyl-3-(4-fluorophenyl)-1-methyl-1H-pyrazol-5-yl]-6-(3-methyl-1H-pyrazolo[4,3-b]pyridin-1-yl)pyrimidin-4-amine] gave an IC50 of 350 nM.
Work on `CCc1c(Nc2cc(-n3nc(C)c(C#N)c3C)ncn2)n[nH]c1-c1ccc(F)cc1` [Example 108, 1-(6-{[4-ethyl-5-(4-fluorophenyl)-1H-pyrazol-3-yl]amino}pyrimidin-4-yl)-3,5-dimethyl-1H-pyrazole-4-carbonitrile] yielded an IC50 of 94 nM.
Compound `CCc1c(Nc2cc(-n3nc(C)cc3C)ncn2)nn(C)c1-c1ccc(C#N)cc1` [Example 210, 4-(3-{[6-(3,5-dimethyl-1H-pyrazol-1-yl)pyrimidin-4-yl]amino}-4-ethyl-1-methyl-1H-pyrazol-5-yl)benzonitrile] has an IC50 of 13 nM.
Compound `CCc1c(Nc2cc(-n3ccc(C)n3)ncn2)nn(C)c1-c1ccc(F)cc1` [Example 242, N-[4-ethyl-5-(4-fluorophenyl)-1-methyl-1H-pyrazol-3-yl]-6-(3-methyl-1H-pyrazol-1-yl)pyrimidin-4-amine] has an IC50 of 21 nM.
For `COc1c(Nc2cc(-n3nc(C)cc3C(F)F)ncn2)nn(C)c1-c1ccc(C#N)cc1` [Example 410, 4-[3-({6-[5-(difluoromethyl)-3-methyl-1H-pyrazol-1-yl]pyrimidin-4-yl}amino)-4-methoxy-1-methyl-1H-pyrazol-5-yl]benzonitrile], the IC50 was 2 nM.
`Cc1c(-c2ccc(C#N)cc2)nn(CC2CC2)c1Nc1cc(-n2cccn2)ncn1` [Example 246, 4-[1-(cyclopropylmethyl)-4-methyl-5-{[6-(1H-pyrazol-1-yl)pyrimidin-4-yl]amino}-1H-pyrazol-3-yl]benzonitrile] showed an IC50 of 340 nM.
Compound `CCOC(=O)c1c(C)nn(-c2cc(Nc3c(Cl)c(-c4ccc(F)cc4)nn3C)ncn2)c1C` [Example 449, ethyl 1-(6-{[4-chloro-3-(4-fluorophenyl)-1-methyl-1H-pyrazol-5-yl]amino}pyrimidin-4-yl)-3,5-dimethyl-1H-pyrazole-4-carboxylate] has an IC50 of 8 nM.

— patent publication US11208400B2, “Substituted 6-(1H-pyrazol-1-yl)pyrimidin-4-amine derivatives and uses thereof” (Bayer Aktiengesellschaft, priority 2016, dated 2021)
